From patent US12172983B2, “EGFR inhibitors” (Blueprint Medicines Corporation, priority 2019, dated 2024)
Read-outs that look alike come from different tables or passages of the source.

Legend:
[1] = target: T1, EGFR (L858R T790M C797S) (Homo sapiens, UniProt P00533, C797S/L858R/T790M); assay: Biochemical EGFR inhibition assay (Caliper mobility shift), EGFR LRTMCS mutant; conditions: inhibitory activity against EGFR LRTMCS mutant; apparent IC50; read-out: Ext Enz LRTMCS
T1 construct: purchased SignalChem E10-122VG
T1 sequence (P00533 25-1210 T790M/C797S/L858R): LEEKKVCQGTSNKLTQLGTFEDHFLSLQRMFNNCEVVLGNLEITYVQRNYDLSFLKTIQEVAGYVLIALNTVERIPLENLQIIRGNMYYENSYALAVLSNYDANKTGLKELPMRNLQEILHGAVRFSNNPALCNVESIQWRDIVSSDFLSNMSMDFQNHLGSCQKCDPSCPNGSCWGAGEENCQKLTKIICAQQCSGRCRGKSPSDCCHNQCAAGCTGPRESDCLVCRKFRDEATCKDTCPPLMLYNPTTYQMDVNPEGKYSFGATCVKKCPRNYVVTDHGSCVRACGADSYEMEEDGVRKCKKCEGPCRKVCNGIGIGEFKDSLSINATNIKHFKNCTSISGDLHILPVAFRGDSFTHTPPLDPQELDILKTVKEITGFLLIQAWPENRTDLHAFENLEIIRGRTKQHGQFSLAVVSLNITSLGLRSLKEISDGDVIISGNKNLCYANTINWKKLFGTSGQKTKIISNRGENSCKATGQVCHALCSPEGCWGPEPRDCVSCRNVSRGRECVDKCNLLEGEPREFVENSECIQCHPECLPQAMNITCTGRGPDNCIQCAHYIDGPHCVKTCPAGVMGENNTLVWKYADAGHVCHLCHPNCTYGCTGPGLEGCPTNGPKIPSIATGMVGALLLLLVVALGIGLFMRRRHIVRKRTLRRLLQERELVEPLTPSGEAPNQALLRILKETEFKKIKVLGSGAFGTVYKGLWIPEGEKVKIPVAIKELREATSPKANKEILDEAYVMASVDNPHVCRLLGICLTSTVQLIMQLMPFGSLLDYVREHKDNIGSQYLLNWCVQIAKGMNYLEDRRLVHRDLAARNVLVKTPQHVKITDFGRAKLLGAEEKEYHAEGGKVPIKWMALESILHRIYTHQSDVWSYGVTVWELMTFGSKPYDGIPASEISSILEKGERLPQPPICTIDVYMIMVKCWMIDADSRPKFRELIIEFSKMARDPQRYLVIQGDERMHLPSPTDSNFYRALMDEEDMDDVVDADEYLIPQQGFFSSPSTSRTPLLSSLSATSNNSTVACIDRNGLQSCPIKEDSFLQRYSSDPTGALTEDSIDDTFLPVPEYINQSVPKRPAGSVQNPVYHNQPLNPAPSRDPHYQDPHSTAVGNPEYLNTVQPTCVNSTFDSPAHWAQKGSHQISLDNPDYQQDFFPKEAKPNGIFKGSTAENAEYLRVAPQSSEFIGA
In short: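 Apparent IC50s were derived by plotting percent activity against the log of compound concentration. Activity was measured as phosphopeptide electrophoretically separated from substrate, after reactions at room temperature reached 10% to 20% phosphorylation and were halted with 35 mM EDTA.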

[2] = test system: phosphorylation of EGFR (Tyr1068) in NCI-H1975 cell line that harbors the EGFR L858R T790M mutations; assay: NCI-H1975 pEGFR AlphaLISA assay; type: cell-based; conditions: 4-5 hours incubation, read-out: Ext pEGFR H1975
In short: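 Phospho-EGFR Tyr1068 AlphaLISA readout: lysates taken from compound-treated H1975 cells (L858R T790M EGFR) after a 4-5 h exposure at 37 °C. Cells had adhered overnight beforehand. IC50 derived by plotting % pEGFR inhibition against log compound concentration.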

[3] = Homo sapiens, NCI-H1975, inhibition of phosphorylation of mutant EGFR in NCI-H1975 cells

Compound | IC50 [1] [nM] | IC50 [2, 3] [nM] | IC50 ([2]; inhibition of phosphorylation of mutant EGFR in NCI-H1975 cells) [nM]
CC(C)c1ccc(N2CC(CS(=O)(=O)C3CNC3)C2)c2cnc(Nc3ccnc(N4CC[C@@H](O)[C@@](C)(F)C4)n3)cc12 (single isomer, unassigned) [Compound 223] | 20.1 to 30 | 30.1 to 50 | –
COC1CCN(c2nncc(Nc3cc4c(C(C)C)ccc(N5CC(CS(C)(=O)=O)C5)c4cn3)n2)CC1 [Compound 23, 8-[3-(methanesulfonylmethyl)azetidin-1-yl]-N-[3-(4-methoxypiperidin-1-yl)-1,2,4-triazin-5-yl]-5-(propan-2-yl)isoquinolin-3-amine] | ≤ 15 | 10.1 to 20 | –
CC(C)c1ccc(N2CC(CS(C)(=O)=O)C2)c2cnc(Nc3ccnc(N4CC[C@](C)(O)C[C@@H]4C)n3)cc12 (single isomer, unassigned) [Compound 44, (2R,4R)-1-[4-({8-[3-(methanesulfonylmethyl)azetidin-1-yl]-5-(propan-2-yl)isoquinolin-3-yl}amino)pyrimidin-2-yl]-2,4-dimethylpiperidin-4-ol or (2S,4S)-1-[4-({8-[3-(methanesulfonylmethyl)azetidin-1-yl]-5-(propan-2-yl)isoquinolin-3-yl}amino)pyrimidin-2-yl]-2,4-dimethylpiperidin-4-ol] | ≤ 15 | ≤ 10 | –
CC(C)c1ccc(N2CC(CS(C)(=O)=O)C2)c2cnc(Nc3ccnc(N4CCC5(CC4)COCCO5)n3)cc12 [Compound 167, N-(2-{1,4-dioxa-9-azaspiro[5,5]undecan-9-yl}pyrimidin-4-yl)-8-[3-(methanesulfonylmethyl)azetidin-1-yl]-5-(propan-2-yl)isoquinolin-3-amine] | ≤ 15 | 10.1 to 20 | –
C[C@]1(F)CN(c2nccc(Nc3cc4c(C5CC5)ccc(N5CC(CS(C)(=O)=O)C5)c4cn3)n2)CC[C@H]1O (single isomer, unassigned) [Compound 51] | ≤ 15 | 20.1 to 30 | –
CO[C@@H]1CCN(c2nccc(Nc3cc4c(C(C)C)ccc(N5C[C@H](CS(C)(=O)=O)[C@H]5C)c4cn3)n2)C[C@@H]1O (single isomer, unassigned) [Compound 93, (3S,4R)-1-(4-(5-isopropyl-8-((2R,3S)-2-methyl-3-(methylsulfonylmethyl)azetidin-1-yl)isoquinolin-3-ylamino)pyrimidin-2-yl)-4-methoxypiperidin-3-ol or (3R,4S)-1-(4-(5-isopropyl-8-((2R,3S)-2-methyl-3-(methylsulfonylmethyl)azetidin-1-yl)isoquinolin-3-ylamino)pyrimidin-2-yl)-4-methoxypiperidin-3-ol] | ≤ 15 | ≤ 10 | –
CC(C)c1ccc(N2C[C@H](CS(C)(=O)=O)[C@H]2C)c2cnc(Nc3ccnc(N4CC[C@H](OCCO)C(F)(F)C4)n3)cc12 (single isomer, unassigned) [Compound 252] | 20.1 to 30 | ≤ 10 | –
CO[C@H]1CCN(c2nccc(Nc3cc4c(C(C)C)ccc(N5C[C@H](CS(C)(=O)=O)[C@H]5C)c4cn3)n2)C[C@H]1C#N (single isomer, unassigned) [Compound 165, (3R,4R)-1-[4-({8-[(2R,3S)-3-(methanesulfonylmethyl)-2-methylazetidin-1-yl]-5-(propan-2-yl)isoquinolin-3-yl}amino)pyrimidin-2-yl-4-methoxypiperidine-3-carbonitrile or (3S,4S)-1-[4-({8-[(2R,3S)-3-(methanesulfonylmethyl)-2-methylazetidin-1-yl]-5-(propan-2-yl)isoquinolin-3-yl}amino)pyrimidin-2-yl]-4-methoxypiperidine-3-carbonitrile] | ≤ 15 | – | 20.1 to 30
COc1ccc(N2CC(CS(C)(=O)=O)C2)c2cnc(Nc3ccnc(N4C[C@@H](F)[C@@H](O)C(C)(C)C4)n3)cc12 (single isomer, unassigned) [Compound 79, (4S,5R)-5-fluoro-1-[4-({8-[3-(methanesulfonylmethyl)azetidin-1-yl]-5-methoxyisoquinolin-3-yl}amino)pyrimidin-2-yl]-3,3-dimethylpiperidin-4-ol or (4R,5S)-5-fluoro-1-[4-({8-[3-(methanesulfonylmethyl)azetidin-1-yl]-5-methoxyisoquinolin-3-yl}amino)pyrimidin-2-yl]-3,3-dimethylpiperidin-4-ol] | ≤ 15 | 10.1 to 20 | –
COC1CCN(c2nccc(Nc3cc4c(C(C)C)ccc(N5CC(CS(C)(=N)=O)C5)c4cn3)n2)CC1 (single isomer, unassigned) [Compound 15, (S)-imino((1-(5-isopropyl-3-((2-(4-methoxypiperidin-1-yl)pyrimidin-4-yl)amino)isoquinolin-8-yl)azetidin-3-yl)methyl)(methyl)-λ^6-sulfanone or (R)-imino((1-(5-isopropyl-3-((2-(4-methoxypiperidin-1-yl)pyrimidin-4-yl)amino)isoquinolin-8-yl)azetidin-3-yl)methyl)(methyl)-λ^6-sulfanone] | ≤ 15 | 30.1 to 50 | –
CC(C)c1ncc(N2C[C@H](CS(C)(=O)=O)[C@H]2C)c2cnc(Nc3ccnc(N4CC[C@](C)(O)[C@H](F)C4)n3)cc12 (single isomer, unassigned) [Compound 136] | ≤ 15 | 10.1 to 20 | –
[2H]C([2H])([2H])O[C@@H]1CCN(c2nccc(Nc3cc4c(C(C)C)ccc(N5CC(CS(C)(=O)=O)C5)c4cn3)n2)C[C@@H]1F (single isomer, unassigned) [Compound 82] | ≤ 15 | ≤ 10 | –
CO[C@@H]1CCN(c2nccc(Nc3cc4c(C(C)C)nnc(N5C[C@H](CS(C)(=O)=O)[C@H]5C)c4cn3)n2)C[C@@H]1F [Compound 150, N-(2-((3S,4R)-3-fluoro-4-methoxypiperidin-1-yl)pyrimidin-4-yl)-1-isopropyl-4-((2R,3S)-2-methyl-3-(methylsulfonylmethyl)azetidin-1-yl)pyrido[4,3-d]pyridazin-7-amine] | ≤ 15 | 20.1 to 30 | –
CCS(=O)(=O)CC1CN(c2cccc3cc(Nc4ccnc(N5C[C@H](F)[C@H](O)C(C)(C)C5)n4)ncc23)C1 (single isomer, unassigned) [Compound 27, (4S,5R)-1-{4-[(8-{3-[(ethanesulfonyl)methyl]azetidin-1-yl}isoquinolin-3-yl)amino]pyrimidin-2-yl}-5-fluoro-3,3-dimethylpiperidin-4-ol or (4R,5S)-1-{4-[(8-{3-[(ethanesulfonyl)methyl]azetidin-1-yl}isoquinolin-3-yl)amino]pyrimidin-2-yl}-5-fluoro-3,3-dimethylpiperidin-4-ol] | ≤ 15 | 10.1 to 20 | –
COC1CCN(c2nccc(Nc3cc4c(C(C)C)cnc(N5C[C@H](CS(C)(=O)=O)[C@H]5C)c4cn3)n2)CC1 [Compound 50, 8-[(2R,3S)-3-(methanesulfonylmethyl)-2-methylazetidin-1-yl]-N-[2-(4-methoxypiperidin-1-yl)pyrimidin-4-yl]-5-(propan-2-yl)-2,7-naphthyridin-3-amine] | ≤ 15 | ≤ 10 | –
CCS(=O)(=O)C[C@H]1CN(c2ncc(C(C)C)c3cc(Nc4ccnc(N5CC[C@H](OC)[C@@H](O)C5)n4)ncc23)[C@@H]1C (single isomer, unassigned) [Compound 179] | ≤ 15 | ≤ 10 | –
CC(C)c1cnc(N2C[C@H](CS(C)(=O)=O)[C@H]2C)c2cnc(Nc3ccnc(N4CC[C@@H](OCC(C)(C)O)[C@@H](F)C4)n3)cc12 [Compound 260, 1-{[(3S,4R)-3-fluoro-1-[4-({8-[(2R,3S)-3-(methanesulfonylmethyl)-2-methylazetidin-1-yl]-5-(propan-2-yl)-2,7-naphthyridin-3-yl}amino)pyrimidin-2-yl]piperidin-4-yl]oxy}-2-methylpropan-2-ol] | ≤ 15 | ≤ 10 | –
CC(C)c1ccc(N2CC(CS(C)(=O)=O)C2)c2cnc(Nc3ccnc(N4C[C@H]5C[C@@H]4C[C@H]5O)n3)cc12 (single isomer, unassigned) [Compound 11, (1R,4R,5R)-2-[4-({8-[3-(methanesulfonylmethyl)azetidin-1-yl]-5-(propan-2-yl)isoquinolin-3-yl}amino)pyrimidin-2-yl]-2-azabicyclo[2.2.1]heptan-5-ol or (1S,4S,5S)-2-[4-({8-[3-(methanesulfonylmethyl)azetidin-1-yl]-5-(propan-2-yl)isoquinolin-3-yl}amino)pyrimidin-2-yl]-2-azabicyclo[2.2.1]heptan-5-ol] | ≤ 15 | 30.1 to 50 | –
CC(C)c1cnc(N2CC(CS(=O)(=O)C(C)C)C2)c2cnc(Nc3ccnc(N4CC[C@@H](O)[C@@](C)(F)C4)n3)cc12 (single isomer, unassigned) [Compound 188] | ≤ 15 | ≤ 10 | –
CO[C@@H]1CCN(c2nccc(Nc3cc4c(C(C)C)ccc(N5CC(CS(C)(=O)=O)C5)c4cn3)n2)C[C@@H]1F [Compound 64, N-(2-((3S,4R)-3-fluoro-4-methoxypiperidin-1-yl)pyrimidin-4-yl)-5-isopropyl-8-(3-(methylsulfonylmethyl)azetidin-1-yl)isoquinolin-3-amine] | ≤ 15 | ≤ 10 | –
CO[C@H]1CCN(c2nccc(Nc3cc4c(F)ccc(N5C[C@H](CS(C)(=O)=O)[C@H]5C)c4cn3)n2)C[C@H]1F [Compound 37, 5-fluoro-N-{2-[(3R,4S)-3-fluoro-4-methoxypiperidin-1-yl]pyrimidin-4-yl}-8-[(2R,3S)-3-(methanesulfonylmethyl)-2-methylazetidin-1-yl]isoquinolin-3-amine] | ≤ 15 | 10.1 to 20 | –
